Data as given in patent publication US9796711B2, “Substituted pyrazolo[3,4-b]pyridin-6-carboxylic acids and method of use” (AbbVie S.àr.l., priority 2015, dated 2017).

Assays:
ΔF508-CFTR [1] = biological target: T1, ΔF508-CFTR (Homo sapiens, UniProt P13569, DEL508-508); experiment: CFTR cell surface levels using HRP-tagged ΔF508-CFTR expressing CFBE cells, in the presence of a co-corrector; assay type: cell-based; details: HRP-tagged ΔF508-CFTR expressing CFBE cells, in the presence of 3 μM co-corrector; for EC50: read-out: EC50
T1 construct: host or cells: CFBE41o-, doxycycline-inducible
T1 sequence (P13569 with tags, fused parts or gaps DEL508-508): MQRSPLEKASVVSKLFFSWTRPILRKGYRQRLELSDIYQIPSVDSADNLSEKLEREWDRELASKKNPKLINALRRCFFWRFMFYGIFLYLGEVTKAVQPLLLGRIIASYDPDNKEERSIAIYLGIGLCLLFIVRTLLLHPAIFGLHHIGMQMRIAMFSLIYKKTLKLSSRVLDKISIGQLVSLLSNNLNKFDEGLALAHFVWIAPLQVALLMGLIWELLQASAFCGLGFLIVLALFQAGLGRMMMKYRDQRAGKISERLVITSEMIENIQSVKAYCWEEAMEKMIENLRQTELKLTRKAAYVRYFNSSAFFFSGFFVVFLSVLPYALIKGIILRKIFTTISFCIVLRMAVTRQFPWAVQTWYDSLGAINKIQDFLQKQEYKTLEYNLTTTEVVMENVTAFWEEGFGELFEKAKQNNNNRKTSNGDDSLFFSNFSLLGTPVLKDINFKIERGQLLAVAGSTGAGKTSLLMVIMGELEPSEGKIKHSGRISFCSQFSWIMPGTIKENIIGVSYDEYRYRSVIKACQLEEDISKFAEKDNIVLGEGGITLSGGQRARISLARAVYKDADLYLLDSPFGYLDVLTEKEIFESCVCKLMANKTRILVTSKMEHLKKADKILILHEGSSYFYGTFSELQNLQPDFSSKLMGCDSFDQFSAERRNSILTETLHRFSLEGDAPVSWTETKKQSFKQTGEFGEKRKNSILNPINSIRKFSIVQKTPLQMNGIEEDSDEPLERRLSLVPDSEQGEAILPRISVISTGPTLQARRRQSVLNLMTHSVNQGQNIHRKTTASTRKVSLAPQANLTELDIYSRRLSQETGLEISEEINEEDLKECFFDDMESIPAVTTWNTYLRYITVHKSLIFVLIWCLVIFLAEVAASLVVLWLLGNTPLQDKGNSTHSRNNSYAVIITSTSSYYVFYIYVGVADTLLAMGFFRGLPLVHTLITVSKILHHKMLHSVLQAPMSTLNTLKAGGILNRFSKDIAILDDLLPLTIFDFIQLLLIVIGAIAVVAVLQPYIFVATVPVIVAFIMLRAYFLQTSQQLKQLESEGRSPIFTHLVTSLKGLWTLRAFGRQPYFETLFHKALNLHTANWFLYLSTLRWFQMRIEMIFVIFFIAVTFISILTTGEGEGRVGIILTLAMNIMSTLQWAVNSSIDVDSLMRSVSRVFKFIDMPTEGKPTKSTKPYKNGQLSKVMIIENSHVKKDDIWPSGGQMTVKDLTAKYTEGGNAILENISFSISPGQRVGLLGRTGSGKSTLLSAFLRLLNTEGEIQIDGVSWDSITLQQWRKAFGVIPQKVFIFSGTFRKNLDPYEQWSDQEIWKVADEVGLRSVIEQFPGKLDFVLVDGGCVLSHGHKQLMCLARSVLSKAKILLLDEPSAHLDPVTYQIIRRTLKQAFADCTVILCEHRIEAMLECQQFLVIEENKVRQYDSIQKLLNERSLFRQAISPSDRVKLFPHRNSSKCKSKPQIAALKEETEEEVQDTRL
Procedure, shortened: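 Cells were seeded with 0.5 μg/mL doxycycline and held 68 h at 37 °C. Test compounds plus 3 μM co-corrector (final 0.1% DMSO) were then added for 20 h at 33 °C. Washed cells received HRP substrate, and luminescence was normalized between DMSO and 3 μM co-corrector controls.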

ΔF508-CFTR [2] = biological target: T1, ΔF508-CFTR; experiment: CFTR cell surface levels using HRP-tagged ΔF508-CFTR expressing CFBE cells, intrinsic corrector capacity; assay type: cell-based; details: HRP-tagged ΔF508-CFTR CFBE41o- cells, compounds alone (intrinsic corrector capacity), 20 hours at 33° C.; for % Activation: positive control 3 μM corrector; for EC50: read-out: EC50
Procedure, shortened: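 Here the cells express ΔF508-CFTR with horseradish peroxidase inserted in extracellular loop 4, so only rescued channel at the surface gives luminescent signal. Compounds act on their own, 20 h at the reduced temperature of 33 °C; values are percent activity relative to DMSO and a 3 μM corrector.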

Row | SMILES | % Activation (ΔF508-CFTR [1]) [%] | EC50 (ΔF508-CFTR [1]) [nM] | % Activation (ΔF508-CFTR [2]) [%] | EC50 (ΔF508-CFTR [2]) [nM]
1 | Cc1nn(-c2ccccc2)c2nc(C(=O)O)cc(-c3ccc(NC4COC4)cc3)c12 [compound 112, 3-methyl-4-{4-[(oxetan-3-yl)amino]phenyl}-1-phenyl-1H-pyrazolo[3,4-b]pyridine-6-carboxylic acid] | 378.1 | 2370 | 200.55 | 2470
2 | Cc1nn(-c2ccccc2)c2nc(C(=O)O)cc(-c3ccc(N4CC(C)OC(C)C4)cc3)c12 (stereo not drawn) [compound 114, 4-[4-(2,6-dimethylmorpholin-4-yl)phenyl]-3-methyl-1-phenyl-1H-pyrazolo[3,4-b]pyridine-6-carboxylic acid] | 460.85 | 1240 | 251.05 | 806
3 | Cc1nn(-c2ccccc2)c2nc(C(=O)O)cc(-c3ccc(N(C)C4CCC4)cc3)c12 [compound 115, 4-{4-[cyclobutyl(methyl)amino]phenyl}-3-methyl-1-phenyl-1H-pyrazolo[3,4-b]pyridine-6-carboxylic acid] | 354 | 1280 | 152.3 | 1870
4 | Cc1nn(-c2ccccc2)c2nc(C(=O)O)cc(-c3ccc(N4C[C@@H](O)[C@H](O)C4)cc3)c12 [compound 116, 4-{4-[(3R,4R)-3,4-dihydroxypyrrolidin-1-yl]phenyl}-3-methyl-1-phenyl-1H-pyrazolo[3,4-b]pyridine-6-carboxylic acid] | 262.7 | 3340 | 81.72 | 3340
5 | CC(C)c1nn(C2CCN(CC(F)(F)F)CC2)c2nc(C(=O)O)cc(-c3ccc(N4CCOCC4)cc3)c12 [compound 117, 4-[4-(morpholin-4-yl)phenyl]-3-(propan-2-yl)-1-[1-(2,2,2-trifluoroethyl)piperidin-4-yl]-1H-pyrazolo[3,4-b]pyridine-6-carboxylic acid] | 229.45 | 765 | 70.77 | 1100
6 | Cc1nn(-c2ccccc2)c2nc(C(=O)O)cc(N3CCOCC3)c12 [compound 118, 3-methyl-4-(morpholin-4-yl)-1-phenyl-1H-pyrazolo[3,4-b]pyridine-6-carboxylic acid] | 165.25 | 3340 | 26.575 | 6670
7 | Cc1nn(-c2ccccc2)c2nc(C(=O)O)cc(-c3ccc(N4CCOC(C)(C)C4)cc3)c12 [compound 119, 4-[4-(2,2-dimethylmorpholin-4-yl)phenyl]-3-methyl-1-phenyl-1H-pyrazolo[3,4-b]pyridine-6-carboxylic acid] | 413.2 | 624 | 207.25 | 915
8 | CC(C)c1nn(C2CCOC2)c2nc(C(=O)O)cc(-c3ccc(N4CCOCC4)cc3)c12 (stereo not drawn) [compound 120, 4-[4-(morpholin-4-yl)phenyl]-1-(oxolan-3-yl)-3-(propan-2-yl)-1H-pyrazolo[3,4-b]pyridine-6-carboxylic acid] | 231.45 | 3140 | 70.235 | 3340
9 | CC(C)c1nn(-c2cccc(N3CCOCC3)c2)c2nc(C(=O)O)cc(-c3ccc(N4CCOCC4)cc3)c12 [compound 121, 1-[3-(morpholin-4-yl)phenyl]-4-[4-(morpholin-4-yl)phenyl]-3-(propan-2-yl)-1H-pyrazolo[3,4-b]pyridine-6-carboxylic acid] | 603.1 | 758 | 401.5 | 528
10 | Cc1nn(-c2ccccc2)c2nc(C(=O)O)cc(-c3ccc(N4CC(O)C4)cc3)c12 [compound 124, 4-[4-(3-hydroxyazetidin-1-yl)phenyl]-3-methyl-1-phenyl-1H-pyrazolo[3,4-b]pyridine-6-carboxylic acid] | 371.1 | 1880 | 190.5 | 3080
11 | Cc1nn(-c2ccccc2)c2nc(C(=O)O)cc(-c3ccc(N4CC5(COC5)C4)cc3)c12 [compound 126, 3-methyl-4-[4-(2-oxa-6-azaspiro[3.3]heptan-6-yl)phenyl]-1-phenyl-1H-pyrazolo[3,4-b]pyridine-6-carboxylic acid] | 319.25 | 837 | 156.45 | 1690
12 | Cc1nn(-c2ccccc2)c2nc(C(=O)O)cc(-c3ccc(N4C[C@@H]5C[C@H]4CO5)cc3)c12 [compound 127, 3-methyl-4-{4-[(1S,4S)-2-oxa-5-azabicyclo[2.2.1]heptan-5-yl]phenyl}-1-phenyl-1H-pyrazolo[3,4-b]pyridine-6-carboxylic acid] | 401.3 | 719 | 221.4 | 1790
13 | Cc1nn(-c2ccccc2)c2nc(C(=O)O)cc(C3=CCOCC3)c12 [compound 128, 4-(3,6-dihydro-2H-pyran-4-yl)-3-methyl-1-phenyl-1H-pyrazolo[3,4-b]pyridine-6-carboxylic acid] | 175.85 | 3340 | 33.92 | 3340
14 | CC1(c2nn(-c3ccccc3)c3nc(C(=O)O)cc(-c4ccc(N5CCOCC5)cc4)c23)CC1 [compound 129, 3-(1-methylcyclopropyl)-4-[4-(morpholin-4-yl)phenyl]-1-phenyl-1H-pyrazolo[3,4-b]pyridine-6-carboxylic acid] | 380 | 390 | 178.3 | 414
15 | CN(C)c1ccc(-c2cc(C(=O)O)nc3c2c(C(C)(C)C)nn3C2CCCCC2)cc1 [compound 131, 3-tert-butyl-1-cyclohexyl-4-[4-(dimethylamino)phenyl]-1H-pyrazolo[3,4-b]pyridine-6-carboxylic acid] | 388.7 | 620 | 153.75 | 899
16 | CC(=O)N1CCN(c2cc(C(=O)O)nc3c2c(C)nn3-c2ccccc2)CC1 [compound 132, 4-(4-acetylpiperazin-1-yl)-3-methyl-1-phenyl-1H-pyrazolo[3,4-b]pyridine-6-carboxylic acid] | 156.4 | 3340 | 13.45 | > 10000
17 | Cc1nn(-c2ccccc2)c2nc(C(=O)O)cc(-c3ccc(N4CCOC(CO)C4)cc3)c12 (stereo not drawn) [compound 133, 4-{4-[2-(hydroxymethyl)morpholin-4-yl]phenyl}-3-methyl-1-phenyl-1H-pyrazolo[3,4-b]pyridine-6-carboxylic acid] | 280.3 | 3340 | 74.96 | 3340
18 | Cc1nn(-c2ccccc2)c2nc(C(=O)O)cc(-c3ccc(N4CC5CCC(C4)O5)cc3)c12 [compound 134, 3-methyl-4-[4-(8-oxa-3-azabicyclo[3.2.1]octan-3-yl)phenyl]-1-phenyl-1H-pyrazolo[3,4-b]pyridine-6-carboxylic acid] | 362.2 | 556 | 153.25 | 982
19 | Cc1nn(-c2ccccc2)c2nc(C(=O)O)cc(-c3ccc(N4CCC4)cc3)c12 [compound 135, 4-[4-(azetidin-1-yl)phenyl]-3-methyl-1-phenyl-1H-pyrazolo[3,4-b]pyridine-6-carboxylic acid] | 355.55 | 1460 | 165.1 | 2200
20 | Cc1nn(-c2ccccc2)c2nc(C(=O)O)cc(N3CCN(CC#N)CC3)c12 [compound 136, 4[4-(cyanomethyl)piperazin-1-yl]-3-methyl-1-phenyl-1H-pyrazolo[3,4-b]pyridine-6-carboxylic acid] | 189.95 | 3340 | 40.405 | 3340
21 | Cc1nn(-c2ccccc2)c2nc(C(=O)O)cc(N3CCC(O)CC3)c12 [compound 137, 4-(4-hydroxypiperidin-1-yl)-3-methyl-1-phenyl-1H-pyrazolo[3,4-b]pyridine-6-carboxylic acid] | 158.05 | 3340 | 27.985 | > 10000
22 | CC(=O)N1CCC(c2cc(C(=O)O)nc3c2c(C)nn3-c2ccccc2)CC1 [compound 138, 4-(1-acetylpiperidin-4-yl)-3-methyl-1-phenyl-1H-pyrazolo[3,4-b]pyridine-6-carboxylic acid] | 133.3 | > 10000 | 12.11 | > 10000
23 | Cc1nn(-c2ccccc2)c2nc(C(=O)O)cc(C3CCN(CC#N)CC3)c12 [compound 139, 4-[1-(cyanomethyl)piperidin-4-yl]-3-methyl-1-phenyl-1H-pyrazolo[3,4-b]pyridine-6-carboxylic acid] | 104.1 | > 10000 | −0.041 | > 10000
24 | Cc1nn(-c2ccccc2)c2nc(C(=O)O)cc(-c3ccc(N(C)C4COC4)cc3)c12 [compound 140, 3-methyl-4-{4-[methyl(oxetan-3-yl)amino]phenyl}-1-phenyl-1H-pyrazolo[3,4-b]pyridine-6-carboxylic acid] | 362.05 | 941 | 178 | 1500
